Experimental data taken from PubChem BioAssay (NCI).
“And” between values parts separate entries of the source, which are not always exact repeats. Identical values can stand only once.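 Test compounds were applied to cells in 96-well plates for 48 hours at 5 doses. GI50 = concentration required for 50% inhibition of growth. The concentration for full growth arrest is given as TGI.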

Columns and labels:
Experiment in all cases: NCI tumour cell line growth inhibition, 48 h
COLO 205 colon = system: COLO 205 colon
K-562 leukemia = system: K-562 leukemia
NCI-H23 lung = system: NCI-H23 lung
SF-295 CNS = system: SF-295 CNS
SF-539 CNS = system: SF-539 CNS
SNB-75 CNS = system: SNB-75 CNS
SW-620 colon = system: SW-620 colon
UACC-62 melanoma = system: UACC-62 melanoma
MDA-MB-435 = system: MDA-MB-435
RPMI-8226 leukemia = system: RPMI-8226 leukemia

Row | SMILES | TGI (COLO 205 colon) | TGI (K-562 leukemia) | TGI (NCI-H23 lung) | TGI (SF-295 CNS) | TGI (SF-539 CNS) | TGI (SNB-75 CNS) | TGI (SW-620 colon) | TGI (UACC-62 melanoma) | GI50 (K-562 leukemia) | GI50 (MDA-MB-435) | TGI (MDA-MB-435) | GI50 (NCI-H23 lung) | GI50 (SF-295 CNS) | GI50 (SF-539 CNS) | GI50 (SNB-75 CNS) | GI50 (SW-620 colon) | GI50 (UACC-62 melanoma) | TGI (RPMI-8226 leukemia) | GI50 (COLO 205 colon) | GI50 (RPMI-8226 leukemia)
1 | CCOC(=O)c1cc2c(cn1)[nH]c1cccc(N)c12 | > 100 µM | > 100 µM | > 100 µM | > 100 µM | > 100 µM | > 100 µM | > 100 µM | > 100 µM |  |  |  |  |  |  |  |  |  |  |  | 
2 | O=c1cc(-c2ccccc2)nc(/C=C(\O)c2ccncc2)n1-c1ccccc1 | > 100 µM | > 100 µM | > 100 µM | > 100 µM | > 100 µM | > 100 µM | > 100 µM | > 100 µM |  |  |  |  |  |  |  |  |  |  |  | 
3 | CCCCOC(=O)c1ccc(NC(=O)CCl)cc1 |  | > 100 µM | 7.47 µM | 23.1 µM | 3.18 µM | 5.96 µM | 3.38 µM | 13.3 µM | 2.98 µM | 3.5 µM | 14.3 µM | 2.4 µM | 10.5 µM | 1.7 µM | 1.86 µM | 1.59 µM | 2.74 µM |  |  | 
4 | COC(=O)[C@@]1(O)CC(C)C=C1C=O (stereo partly specified) | > 100 µM | > 100 µM | > 100 µM | > 100 µM | > 100 µM | > 100 µM | > 100 µM | > 100 µM |  |  |  |  |  |  |  |  |  | > 100 µM |  | 
5 | CN(C(=O)C12C3(C(=O)C(C)(C)C)C4C5(C#N)C3C1(C(=O)C(C)(C)C)C5C42C(=O)C(C)(C)C)C(C)(C)C (stereo unspecified) | > 50 µM | > 50 µM | > 50 µM | > 50 µM | > 50 µM | > 50 µM | > 50 µM | > 50 µM |  |  |  |  |  |  |  |  |  |  |  | 
6 | CCCCCCCCC(O)C#CC(N)=O (stereo unspecified) |  | 75.4 µM | 35.6 µM | > 100 µM | 26.1 µM | 17.5 µM | 37.2 µM | 19.9 µM |  |  |  |  |  |  |  |  |  | 41.1 µM |  | 
7 | Cc1ccc(-c2cc(=O)c3cc(C)c(C)c(C(=O)O)c3o2)cc1 | > 100 µM |  | > 100 µM | > 100 µM | 75 µM | > 100 µM | > 100 µM | > 100 µM |  |  |  |  |  |  |  |  |  | > 100 µM |  | 
8 | C/C(CC(=O)Nc1ccc(Cl)cc1)=N\NC(=O)C[n+]1ccccc1 | > 100 µM | > 100 µM | > 100 µM | > 100 µM | > 100 µM | > 100 µM | > 100 µM | > 100 µM |  |  |  |  |  |  |  |  |  | > 100 µM |  | 
9 | CC(C)(O)[C@@H]1CC[C@@]2(C)CCC[C@H](O)[C@H]2C1 | > 100 µM | > 100 µM | > 100 µM | > 100 µM | > 100 µM | > 100 µM | > 100 µM | > 100 µM |  |  |  |  |  |  |  |  |  | > 100 µM |  | 
10 | O=C1C2CC=CCC2C(=O)C12CCc1ccccc12 (stereo unspecified) | > 100 µM | > 100 µM | > 100 µM | > 100 µM |  | > 100 µM | > 100 µM | > 100 µM |  |  |  |  |  |  |  |  |  |  |  | 
11 | CC(=O)OC(C)(C)/C=C/C(=O)[C@](C)(O)[C@H]1[C@H](O)C[C@@]2(C)[C@@H]3CC=C4[C@@H](C[C@H](O)C(=O)C4(C)C)[C@]3(CO)C(=O)C[C@]12C |  | 29.5 µM | 14.7 µM | 0.772 µM and 1.64 µM | 0.658 µM and 0.472 µM | 0.375 µM and 0.211 µM | 20 µM | 15.8 µM | 0.164 µM |  |  | 0.621 µM |  | 0.173 µM | 0.0529 µM | 0.159 µM | 0.127 µM | 2.28 µM | 0.159 µM | 0.356 µM
12 | CN1CCN(C(=O)c2c(NC(=O)NS(=O)(=O)c3ccccc3)sc3c2CCCCC3)CC1 |  | > 100 µM | 52.1 µM | > 100 µM | 69.9 µM |  | > 100 µM | 60 µM | 33.6 µM | 26.2 µM | 67.8 µM | 24.3 µM | 57.2 µM | 29.7 µM |  | 43.9 µM | 23 µM | 64.8 µM |  | 21.8 µM
13 | CN(C)C(=S)/N=c1\ss/c(=N\C(=S)N(C)C)n1-c1ccc(Cl)cc1 | > 100 µM | > 100 µM | > 100 µM | > 100 µM | > 100 µM | > 100 µM | > 100 µM | > 100 µM |  |  |  |  |  |  |  |  |  | > 100 µM |  | 
14 | O=C(Nc1ccc2[nH]c(C(=O)N3CC(CCl)c4c3cc([N+](=O)[O-])c3ccccc43)cc2c1)c1cc2ccccc2o1 (stereo unspecified) | > 1100 µM |  | > 1100 µM | > 1100 µM | > 1100 µM |  | > 1100 µM | > 1100 µM |  | > 1100 µM | > 1100 µM | > 1100 µM |  |  |  | > 1100 µM | > 1100 µM | > 1100 µM | > 1100 µM | > 1100 µM
15 | O=C1[C@H]2ON(c3ccccc3)C(c3ccccc3F)[C@H]2C(=O)N1c1ccc(Cc2ccc(N3C(=O)[C@@H]4ON(c5ccccc5)C(c5ccccc5F)[C@@H]4C3=O)cc2)cc1 (stereo partly specified) | > 100 µM | > 100 µM | > 100 µM | > 100 µM | > 100 µM | > 100 µM | > 100 µM | > 100 µM |  |  |  |  |  |  |  |  |  | > 100 µM |  | 
16 | Nc1nc2ccc3[nH]ncc3c2c2c1CCCC2 | 10.1 µM | 15 µM | 3.12 µM | 10.5 µM | 3.18 µM | 2.71 µM | 10 µM | 3.47 µM | 3.15 µM | 1.52 µM | 3.36 µM | 1.41 µM | 2.49 µM | 1.51 µM | 1.36 µM | 1.55 µM | 1.43 µM |  | 2.09 µM | 
17 | COc1c2c(c(CC=C(C)C)c3oc(=O)c(-c4ccc(O)cc4)c(O)c13)OC(C)(C)C=C2 | 40.2 µM | > 100 µM | > 100 µM | > 100 µM | 32.8 µM |  | > 100 µM | 46.6 µM |  |  | 45.7 µM |  |  |  |  |  |  | 75.3 µM |  | 
18 | Cc1ccc(C(=O)N2c3ccccc3N(C)n3cccc3C2CC(=O)O)cc1 (stereo unspecified) | > 100 µM | > 100 µM | > 100 µM | > 100 µM | > 100 µM | > 100 µM | > 100 µM | > 100 µM |  |  |  |  |  |  |  |  |  | > 100 µM |  | 
19 | COc1ccc(C2=Nc3c/c(=C\c4c(O)[nH]c5ccc(Cl)cc45)ccc3=N2)cc1 | 3.67 µM | 6.29 µM |  |  | 3.87 µM |  | 3.28 µM |  | 1 µM |  |  |  |  | 1.78 µM |  | 1.41 µM |  |  | 1.93 µM | 
20 | N#Cc1ccc(C2C3=C(CCCC3=O)OC3=C2C(=O)c2ccccc2C3=O)cc1 (stereo unspecified) | 3.63 µM |  | 5.03 µM | 3.9 µM | 3.06 µM | 2.65 µM | 5.69 µM | 4.02 µM |  | 0.216 µM | 0.444 µM | 1.25 µM | 1.83 µM | 1.69 µM | 1.35 µM | 2.21 µM | 2.06 µM | 7.12 µM | 1.86 µM | 2.3 µM
